Data as given in US20210391038A1, “SPECIFICALLY-SHAPED CRYSTAL OF COMPOUND AND METHOD FOR PRODUCING SAME” (TOWA PHARMACEUTICAL CO., LTD., priority 2018, published 2021).
Structures can show the parent of a compound that is named as a salt.

How the values were obtained:
Assay type in all cases: physicochemical
[1] = Sphericity from SEM images (ImageJ); parameters: key: 1 = true sphere; closer to 1 = more spherical; mean of ≥5 particles; conditions: SEM image analysis, mean of particles
From the text: In the present description, “spherulite” means a crystal aggregate (polycrystal) which has a radial or concentric thin layered structure and has a spherical outer shape. Whether the crystal obtained by the method of the present invention is a spherulite or not can be determined, for example, by observing the outer shape of the crystal using SEM. For example, it can be discriminated by cutting the crystal aggregate and observing the internal structure thereof using SEM. The sphericity of the spherulite obtained by the method of the present invention is usually 0.60 or more, preferably 0.70 or more, more preferably 0.80 or more, particularly preferably 0.90 or more, and most preferably 0.95 or more. The sphericity can be calculated by the following method.
When an image of particles taken by SEM is analyzed using image processing software ImageJ, a coordinate group representing the position of pixels forming the outline of a particle is obtained. The length of the coordinate group is defined as N, and one pixel coordinate of each outline is defined as p[i] (1≤i≤N). The angle between a straight line l(k) connecting two points p[k] and p[k+N/D] and a straight line m(k) connecting two points p[k+N/D] and p[k+2N/D] is defined as θ(k) (−180°<θ<180°) (1≤k≤N, 1≤D≤N). D corresponds to the number of partitions of the outline. When N/D is not a natural number, the value is defined as the quotient obtained by dividing N by D. By calculating this angle with k=1 to N, N pieces of θ value can be obtained.
When the particle is a true sphere, θ(k) is 360/D, and the closer the particle is to a true sphere, the closer θ(k) is to this value. The error between θ(k) and the true value 360/D is evaluated by the root-mean-square error (RMSE) of the following formula:
Using the RMSE value of when D is 10 (θ(k)=36°), the sphericity is defined by the following formula: […]
The sphericity is 1 in a true sphere, and the closer the particle is to a true sphere, the closer the sphericity is to 1. Meanwhile, the sphericity of an ellipse whose long axis is infinitely long is zero. The sphericity is measured for five or more particles to calculate the mean. This mean is defined as the sphericity of each sample (see FIGS. 42 and 43).

[2] = Particle size distribution (d50, sharpness index); parameters: key to sharpness index of the crystal thus obtained / sharpness index of the fine powders: calculated by formula from d10, d50, d90; 1.0 = most uniform particle size; conditions: for sharpness index of the crystal thus obtained: calculated from d10, d50, d90; for d50 of the crystal thus obtained: dry particle size distribution, volume based
From the text: d10 in the present description is a value obtained from a particle size distribution analyzer, and represents a particle size of a particle corresponding to 10% of accumulation from the smaller particle side in the particle size distribution based on the volume.
d50 in the present description is a value obtained from a particle size distribution analyzer, and represents a particle size of a particle corresponding to 50% of accumulation from the smaller particle side in the particle size distribution based on the volume.
“Sharpness index” in the present description is an index representing the uniformity of a particle size of a particle in a powder, and a sharpness index of 1.0 represents a powder having the most uniform particle size. The closer the sharpness index is to 1.0, the more the particle size of the powder is uniform. Specifically, the sharpness index represents a value calculated using the following formula from the values of d10, d50, and d90 measured by a particle size distribution analyzer:
Images for measuring the number of particles were obtained by a scanner GT-X830 manufactured by SEIKO EPSON CORPORATION. The powder X-ray diffraction (XRD) was measured using a desktop X-ray diffraction device MiniFlex300 manufactured by Rigaku Corporation. […] The particle strength was measured using a particle hardness measuring device NEW GRANO manufactured by OKADA SEIKO CO., LTD. […] The purity of a compound was measured by a high performance liquid chromatograph (LC-20A) manufactured by Shimadzu Corporation.

[3] = Measurement of critical degree of supersaturation of spherulite
From the text: “Supersaturated solution” in the present description means a solution in a state of containing a solute exceeding the solubility. As the degree of supersaturation, “degree of supersaturation” can be used. Regarding the degree of supersaturation, when the concentration (mass concentration (g/g)) of a compound dissolved in a supersaturated solution is defined as C and the solubility of the compound is defined as Cs, the degree of supersaturation S can be represented by the following formula: […]
“Critical degree of supersaturation” in the present description means the lowest degree of supersaturation required to obtain a specifically-shaped crystal. […] The value of a critical degree of supersaturation varies depending on the shape of a crystal. For example, all of values of a critical degree of supersaturation required to obtain a plate crystal, a critical degree of supersaturation required to obtain a needle crystal, and a critical degree of supersaturation required to obtain a spherulite are different. The critical degree of supersaturation required to obtain a spherulite is higher than the critical degree of supersaturation required to obtain a plate crystal or a needle crystal.
The actual measured value of the critical degree of supersaturation (S*) can be measured as follows:
(1) 100 particles are observed by SEM. (2) 5 to 10 particles whose shape is close to a desired specific shape are selected, and the shape is evaluated. In particular, when the desired specific shape is a sphere, the sphericity is evaluated. (3) Based on the evaluation index of the shape, whether the selected particles have the desired specific shape or not is determined. In particular, when the desired specific shape is a sphere, the case where the sphericity is 0.60 or more is determined as a spherulite. (4) The above-mentioned operation is performed for each sample having a different degree of supersaturation during crystallization, and the minimum value of a degree of supersaturation having the specifically-shaped particles is determined as the critical degree of supersaturation. The difference between the maximum value of a degree of supersaturation not having the specifically-shaped particles and the critical degree of supersaturation should be 20% or less.
The critical degree of supersaturation of a spherulite of ketotifen fumarate was determined as follows. To 2.0 g of ketotifen fumarate, 10 mL (5 v/w) of methanol was added, followed by reflux to completely dissolve. This solution was added dropwise to 50 mL of isopropanol at 20° C. to prepare a supersaturated solution of ketotifen fumarate. The degree of supersaturation of the supersaturated solution at the end of dropwise addition was 9.0. The supersaturated solution was crystallized. The crystal was collected by filtration, followed by drying under reduced pressure at 40° C., thus obtaining a crystal of ketotifen fumarate.
Similarly, when a substrate and a solvent different from those mentioned above are used, a plurality of samples having a different degree of supersaturation are prepared and crystallized, and then the critical degree of supersaturation of the spherulite was measured.

## CC[C@H]1OC(=O)[C@H](C)[C@@H](O[C@H]2C[C@@](C)(OC)[C@@H](O)[C@H](C)O2)[C@H](C)[C@@H](O[C@@H]2O[C@H](C)C[C@H](N(C)C)[C@H]2O)[C@](C)(O)C[C@@H](C)CN(C)[C@H](C)[C@@H](O)[C@]1(C)O [Example 12, azithromycin monohydrate]
[1]
  sphericity of the spherulite: 0.89±0.02
[2]
  sharpness index of the crystal thus obtained: 1.5
  d50 of the crystal thus obtained: 75 μm

## O=C(O)CCCN1CCC(O[C@@H](c2ccc(Cl)cc2)c2ccccn2)CC1.O=S(=O)(O)c1ccccc1 [Example 30, bepotastine besilate]
[1]
  sphericity of the spherulite: 0.98±0.01
[2]
  sharpness index of the crystal thus obtained: 2.15
  d50 of the crystal thus obtained: 105 μm

## CN(C)CCC[C@@]1(c2ccc(F)cc2)OCc2cc(C#N)ccc21 [Example 19, escitalopram oxalate]
[1]
  sphericity of the spherulite: 0.98±0.01
[2]
  sharpness index of the crystal thus obtained: 4.87
  d50 of the crystal thus obtained: 50.7 μm

## N#C[C@@H]1CCCN1C(=O)CNC12CC3CC(CC(O)(C3)C1)C2 [Example 20, vildagliptin]
[1]
  sphericity of the spherulite: 0.99±0.01

## COc1ccc2[n-]c([S@@+]([O-])Cc3ncc(C)c(OC)c3C)nc2c1.COc1ccc2[n-]c([S@@+]([O-])Cc3ncc(C)c(OC)c3C)nc2c1.O.O.O.[Mg+2] [Example 10(1), esomeprazole magnesium trihydrate]
[1]; trihydrate
  sphericity of the spherulite: 0.97±0.01
[2]; trihydrate
  sharpness index of the crystal thus obtained: 1.51
  d50 of the crystal thus obtained: 39.9 μm
[2]; samples of filtration test (Table 7), trihydrate
  d50: 39.9 μm

## CN1CCC(=C2c3ccccc3CC(=O)c3sccc32)CC1 [Example 1, ketotifen fumarate]
[1]
  sphericity of the spherulite: 0.78±0.02

## Cc1c(OCC(F)(F)F)ccnc1C[S+]([O-])c1nc2ccccc2[nH]1 (stereo not shown) [Example 11, lansoprazole]
[1]
  sphericity of the spherulite: 0.94±0.04

## NC(CCC(=O)O)C(=O)O (racemic) [Example 14, DL-glutamic acid]
[1]
  sphericity of the spherulite: 0.95±0.03

## CN1CCC(=C2c3ccccc3CC(=O)c3sccc32)CC1 [Ketotifen fumarate]
[3]; entry 4, solvent 1 MeOH, solvent 2 IPA, solvent 2/solvent 1 ratio 5, crystallization 0 °C
  Critical degree of supersaturation S Experimental value: 2.5
[3]; entry 5, solvent 1 MeOH, solvent 2 IPA, solvent 2/solvent 1 ratio 5, crystallization 50 °C
  Critical degree of supersaturation S Experimental value: 4
[3]; entry 6, solvent 1 MeOH, solvent 2 2-BuOH, solvent 2/solvent 1 ratio 5, crystallization 0 °C
  Critical degree of supersaturation S Experimental value: 1.6
[3]; entry 7, solvent 1 MeOH, solvent 2 2-BuOH, solvent 2/solvent 1 ratio 5, crystallization 20 °C
  Critical degree of supersaturation S Experimental value: 4.4
[3]; methanol to isopropanol 1:5, temperature during crystallization 20° C.
  critical degree of supersaturation of a spherulite: 4.0

## CC[C@H]1OC(=O)[C@H](C)[C@@H](O[C@H]2C[C@@](C)(OC)[C@@H](O)[C@H](C)O2)[C@H](C)[C@@H](O[C@@H]2O[C@H](C)C[C@H](N(C)C)[C@H]2O)[C@](C)(O)C[C@@H](C)CN(C)[C@H](C)[C@@H](O)[C@]1(C)O [Azithromycin monohydrate]
[3]; entry 11, solvent 1 IPA, solvent 2 H2O, solvent 2/solvent 1 ratio 10, crystallization 0 °C
  Critical degree of supersaturation S Experimental value: 3.2
[3]; entry 14, solvent 1 IPA, solvent 2 H2O, solvent 2/solvent 1 ratio 20, crystallization 0 °C
  Critical degree of supersaturation S Experimental value: 1.6
[3]; entry 15, solvent 1 Acetone, solvent 2 H2O, solvent 2/solvent 1 ratio 10, crystallization 0 °C
  Critical degree of supersaturation S Experimental value: 6.2
[3]; entry 16, solvent 1 EtOH, solvent 2 H2O, solvent 2/solvent 1 ratio 20, crystallization 0 °C
  Critical degree of supersaturation S Experimental value: 7.1
[3]; entry 17, solvent 1 MeOH, solvent 2 H2O, solvent 2/solvent 1 ratio 20, crystallization 0 °C
  Critical degree of supersaturation S Experimental value: 7.5
[3]; entry 18, solvent 1 IPA, solvent 2 H2O, solvent 2/solvent 1 ratio 10, crystallization 20 °C
  Critical degree of supersaturation S Experimental value: 11.1

## CC(C)[C@H](N)C(=O)OCCOCn1cnc2c(=O)[nH]c(N)nc21 [Valacyclovir hydrochloride]
[3]; entry 56, solvent 1 H2O, solvent 2 2-BuOH, solvent 2/solvent 1 ratio 35, crystallization 10 °C
  Critical degree of supersaturation S Experimental value: 48.6

## CCCCCCOC(=O)N=C(N)c1ccc(NCc2nc3cc(C(=O)N(CCC(=O)OCC)c4ccccn4)ccc3n2C)cc1 [Dabigatran etexilate methanesulfonate]
[3]
  actual measured value of the critical degree of supersaturation: 4.3
[3]; entry 24, solvent 1 MeOH, solvent 2 TBME, solvent 2/solvent 1 ratio 10, crystallization 20 °C
  Critical degree of supersaturation S Experimental value: 3.3
[3]; entry 25, solvent 1 EtOH, solvent 2 EtOAc, solvent 2/solvent 1 ratio 10, crystallization 5 °C
  Critical degree of supersaturation S Experimental value: 2.9
[3]; entry 26, solvent 1 EtOH, solvent 2 EtOAe, solvent 2/solvent 1 ratio 10, crystallization 20 °C
  Critical degree of supersaturation S Experimental value: 4.3
[3]; entry 27, solvent 1 EtOH, solvent 2 EtOAc, solvent 2/solvent 1 ratio 10, crystallization 35 °C
  Critical degree of supersaturation S Experimental value: 5.2

## COc1cccc(C2(O)CCCCC2CN(C)C)c1 (stereo not shown) [Tramadol hydrochloride]
[3]
  actual measured value of the critical degree of supersaturation: 4.2
[3]; entry 36, solvent 1 MeOH, solvent 2 i-PrOAc, solvent 2/solvent 1 ratio 20, crystallization 10 °C
  Critical degree of supersaturation S Experimental value: 4.7
[3]; entry 37, solvent 1 IPA, solvent 2 TBME, solvent 2/solvent 1 ratio 30, crystallization 10 °C
  Critical degree of supersaturation S Experimental value: 11.1
[3]; entry 38, solvent 1 EtOH, solvent 2 TBME, solvent 2/solvent 1 ratio 30, crystallization 10 °C
  Critical degree of supersaturation S Experimental value: 22.4

## O=C(O)CCCN1CCC(O[C@@H](c2ccc(Cl)cc2)c2ccccn2)CC1.O=S(=O)(O)c1ccccc1 [Bepotastine besilate]
[3]
  actual measured value of the critical degree of supersaturation: 36.4
[3]; entry 57, solvent 1 EtOH, solvent 2 AcOiPr, solvent 2/solvent 1 ratio 10, crystallization 0 °C
  Critical degree of supersaturation S Experimental value: 36.4
